Columns and labels:
CYPSE (Flatsedge) = assay: Preemergence weed control under flooded paddy conditions; type: in vivo, Cyperus serotinus; details: rated 3-4 weeks after treatment
Method in brief: (§1)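 Using flooded silt loam (water 1.5 to 3 cm deep), seeds sown in the top 0.5 cm were exposed preemergence to compound pipetted into the flood at about 0.0313 to 0.500 kg/ha. Effects were scored 0-9 by eye three to four weeks later.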

[1] = test system: GLXMAW (Soybean, Williams); assay: Postemergence herbicidal evaluation; type: in vivo, Glycine max, (L.) Merr. cv Williams
Method in brief: (§2)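 Scores (0–9) reflect plant stand, vigor, malformation, size, chlorosis and general appearance relative to control, read 4 to 5 weeks after treatment and averaged where tests were repeated. Application: about 0.0156–0.500 kg/ha sprayed at 40 psi onto two-week seedlings.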

CASOB (Sicklepod) = assay: Postemergence herbicidal evaluation; type: in vivo, Cassia obtusifolia
Method in brief: as §2

ORYSAT (Rice, Tebonnet) = assay: Preemergence herbicidal evaluation; type: in vivo, Oryza sativa, (L.) Tebonnet; details: rated 4-5 weeks after treatment
Method in brief: (§3)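 Scores use a 0–9 visual scale covering stand, vigor, malformation, size and chlorosis relative to controls, rated four to five weeks after treatment. Before emergence, soil-planted seeds were sprayed with compound in aqueous acetone at roughly 0.0156–0.500 kg/ha and held in the greenhouse.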

[2] = test system: SAGPY (Arrowhead (Pygmaea)); assay: Preemergence weed control under flooded paddy conditions; type: in vivo, Sagittaria pygmaea; details: rated 3-4 weeks after treatment
Method in brief: as §1

[3] = test system: ECHORC (Watergrass (Calif.)); assay: as above; type: in vivo, Echinochloa oryzoides; details: rated 3-4 weeks after treatment
Method in brief: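 First, seeds or propagules go into the top 0.5 cm of silt loam; next, water is held 1.5 to 3 cm over the soil; then compound (50/50 acetone/water) is pipetted into it at about 0.0313 to 0.500 kg/ha; finally plants are rated visually 0-9 after three to four weeks.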

[4] = test system: SAGPY (Arrowhead (Pygmaea)); assay: Postemergence weed control under flooded paddy conditions; type: in vivo, Sagittaria pygmaea; details: postemergence weeds, 3-4 weeks after treatment
Method in brief: (§4)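 Injury ratings (0–9 scale covering stand, vigor, malformation, size, chlorosis and overall appearance versus control) were made three to four weeks after treatment. Test material, about 0.0313 to 0.500 kg/ha a.i. in 50/50 v/v aqueous/acetone, was added to flood water 1.5 to 3 cm deep over 3 to 5 cm weeds and 1.5 to 2.5 leaf rice.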

[5] = test system: ECHORC (Watergrass (Calif.)); assay: as above; type: in vivo, Echinochloa oryzoides; details: postemergence weeds, 3-4 weeks after treatment
Method in brief: as §4

GALAP (Galium) [6] = assay: Postemergence herbicidal evaluation; type: in vivo, Galium aparine
Method in brief: as §2

[7] = test system: TRZAWR (Wheat, Winter, cv Riband); assay: Postemergence herbicidal evaluation; type: in vivo, Triticum aestivum
Method in brief: as §2

AMBEL (Ragweed, Common) = assay: Postemergence herbicidal evaluation; type: in vivo, Ambrosia artemisifolia
Method in brief: as §2

GALAP (Galium) [8] = assay: Preemergence herbicidal evaluation; type: in vivo, Galium aparine; details: rated 4-5 weeks after treatment
Method in brief: as §3

SETVI (Foxtail, Green) = assay: Preemergence herbicidal evaluation; type: in vivo, Setaria viridis; details: rated 4-5 weeks after treatment
Method in brief: as §3

MOOVA (Monochoria) = assay: Preemergence weed control under flooded paddy conditions; type: in vivo, Monochoria vaginalis; details: rated 3-4 weeks after treatment
Method in brief: as §1

CCOC(=O)CN1C(=O)C(CC(=O)O)O/C1=N/c1cc(-n2c(=O)cc(C(F)(F)F)n(C)c2=O)c(F)cc1Cl (centres unmarked) [Compound 41, 2-{{2-Chloro-5-[3,6-dihydro-3-methyl-2,6-dioxo-4-(trifluoromethyl)-1(2H)-pyrimidinyl]-4-fluoro-phenyl}imino}-4-oxo-3,5-oxazolidinediacetic acid, 3-ethyl ester]
Herbicidal rating CYPSE (CYPSE (Flatsedge); 0.0313 kg/ha): 0.0 | Herbicidal rating CYPSE (CYPSE (Flatsedge); 0.0625 kg/ha): 0.0 | Herbicidal rating CYPSE (CYPSE (Flatsedge); 0.1250 kg/ha): 2.0 | Herbicidal rating CYPSE (CYPSE (Flatsedge); 0.2500 kg/ha): 7.0 | Postemergence herbicidal rating GLXMAW ([1]; Rate 0.0158 kg/ha): 8.0 | Postemergence herbicidal rating GLXMAW ([1]; Rate 0.0315 kg/ha): 8.0 | Postemergence herbicidal rating GLXMAW ([1]; Rate 0.0630 kg/ha): 9.0 | Postemergence herbicidal rating CASOB (CASOB (Sicklepod); Rate 0.0158 kg/ha): 1.0 | Postemergence herbicidal rating CASOB (CASOB (Sicklepod); Rate 0.0315 kg/ha): 1.0 | Postemergence herbicidal rating CASOB (CASOB (Sicklepod); Rate 0.0630 kg/ha): 5.0 | Preemergence herbicidal rating ORYSAT (ORYSAT (Rice, Tebonnet); rate 0.0156 kg/ha): 0.0 | Preemergence herbicidal rating ORYSAT (ORYSAT (Rice, Tebonnet); rate 0.0313 kg/ha): 0.0 | Preemergence herbicidal rating ORYSAT (ORYSAT (Rice, Tebonnet); rate 0.0625 kg/ha): 0.0 | Preemergence herbicidal rating ORYSAT (ORYSAT (Rice, Tebonnet); rate 0.1250 kg/ha): 0.0 | Preemergence herbicidal rating ORYSAT (ORYSAT (Rice, Tebonnet); rate 0.2500 kg/ha): 0.0 | Herbicidal rating SAGPY ([2]; 0.0313 kg/ha): 0.0 | Herbicidal rating SAGPY ([2]; 0.0625 kg/ha): 0.0 | Herbicidal rating SAGPY ([2]; 0.1250 kg/ha): 0.0 | Herbicidal rating SAGPY ([2]; 0.2500 kg/ha): 6.0 | Herbicidal rating ECHORC ([3]; 0.0313 kg/ha): 3.0 | Herbicidal rating ECHORC ([3]; 0.0625 kg/ha): 4.0 | Herbicidal rating ECHORC ([3]; 0.1250 kg/ha): 6.0 | Herbicidal rating ECHORC ([3]; 0.2500 kg/ha): 7.0 | Herbicidal rating SAGPY ([4]; rate 0.0313 kg/ha): 0.0 | Herbicidal rating SAGPY ([4]; rate 0.0625 kg/ha): 0.0 | Herbicidal rating SAGPY ([4]; rate 0.1250 kg/ha): 0.0 | Herbicidal rating SAGPY ([4]; rate 0.2500 kg/ha): 6.0 | Herbicidal rating ECHORC ([5]; rate 0.0313 kg/ha): 3.0 | Herbicidal rating ECHORC ([5]; rate 0.0625 kg/ha): 4.0 | Herbicidal rating ECHORC ([5]; rate 0.1250 kg/ha): 6.0 | Herbicidal rating ECHORC ([5]; rate 0.2500 kg/ha): 7.0 | Postemergence herbicidal rating GALAP (GALAP (Galium) [6]; Rate 0.0158 kg/ha): 1.0 | Postemergence herbicidal rating GALAP (GALAP (Galium) [6]; Rate 0.0315 kg/ha): 2.0 | Postemergence herbicidal rating GALAP (GALAP (Galium) [6]; Rate 0.0630 kg/ha): 5.0 | Postemergence herbicidal rating TRZAWR ([7]; Rate 0.0158 kg/ha): 4.0 | Postemergence herbicidal rating TRZAWR ([7]; Rate 0.0315 kg/ha): 4.0 | Postemergence herbicidal rating TRZAWR ([7]; Rate 0.0630 kg/ha): 5.0 | Postemergence herbicidal rating AMBEL (AMBEL (Ragweed, Common); Rate 0.0158 kg/ha): 9.0 | Postemergence herbicidal rating AMBEL (AMBEL (Ragweed, Common); Rate 0.0315 kg/ha): 9.0 | Postemergence herbicidal rating AMBEL (AMBEL (Ragweed, Common); Rate 0.0630 kg/ha): 9.0 | Preemergence herbicidal rating GALAP (GALAP (Galium) [8]; rate 0.0156 kg/ha): 0.0 | Preemergence herbicidal rating GALAP (GALAP (Galium) [8]; rate 0.0625 kg/ha): 0.0 | Preemergence herbicidal rating GALAP (GALAP (Galium) [8]; rate 0.1250 kg/ha): 0.0 | Preemergence herbicidal rating GALAP (GALAP (Galium) [8]; rate 0.2500 kg/ha): 0.0 | Preemergence herbicidal rating SETVI (SETVI (Foxtail, Green); rate 0.0156 kg/ha): 0.0 | Preemergence herbicidal rating SETVI (SETVI (Foxtail, Green); rate 0.0313 kg/ha): 0.0 | Preemergence herbicidal rating SETVI (SETVI (Foxtail, Green); rate 0.0625 kg/ha): 1.0 | Preemergence herbicidal rating SETVI (SETVI (Foxtail, Green); rate 0.1250 kg/ha): 1.0 | Preemergence herbicidal rating SETVI (SETVI (Foxtail, Green); rate 0.2500 kg/ha): 9.0 | Herbicidal rating MOOVA (MOOVA (Monochoria); 0.0313 kg/ha): 6.0 | Herbicidal rating MOOVA (MOOVA (Monochoria); 0.0625 kg/ha): 9.0 | Herbicidal rating MOOVA (MOOVA (Monochoria); 0.1250 kg/ha): 9.0 | Herbicidal rating MOOVA (MOOVA (Monochoria); 0.2500 kg/ha): 9.0

CCOC(=O)COc1ccccc1CC1S/C(=N/c2cc(-n3c(=O)cc(C(F)(F)F)n(C)c3=O)c(F)cc2Cl)N(CC(=O)OCC)C1=O (centres unmarked) [Compound 42, 2-{{2-Chloro-5-[3,6-dihydro-3-methyl-2,6-dioxo-4-(trifluoromethyl)-1(2H)-pyrimidinyl]-4-fluoro-phenyl}imino}-5-(o-hydroxybenzyl)-4-oxo-3-thiazolidineacetic acid, ethyl ester, ester with ethyl glycolate]
Herbicidal rating CYPSE (CYPSE (Flatsedge); 0.0313 kg/ha): 0.0 | Herbicidal rating CYPSE (CYPSE (Flatsedge); 0.0625 kg/ha): 0.0 | Herbicidal rating CYPSE (CYPSE (Flatsedge); 0.1250 kg/ha): 0.0 | Herbicidal rating CYPSE (CYPSE (Flatsedge); 0.2500 kg/ha): 0.0 | Postemergence herbicidal rating GLXMAW ([1]; Rate 0.0158 kg/ha): 5.5 | Postemergence herbicidal rating GLXMAW ([1]; Rate 0.0315 kg/ha): 6.0 | Postemergence herbicidal rating GLXMAW ([1]; Rate 0.0630 kg/ha): 6.5 | Postemergence herbicidal rating CASOB (CASOB (Sicklepod); Rate 0.0158 kg/ha): 4.0 | Postemergence herbicidal rating CASOB (CASOB (Sicklepod); Rate 0.0315 kg/ha): 3.0 | Postemergence herbicidal rating CASOB (CASOB (Sicklepod); Rate 0.0630 kg/ha): 7.0 | Preemergence herbicidal rating ORYSAT (ORYSAT (Rice, Tebonnet); rate 0.0313 kg/ha): 0.0 | Preemergence herbicidal rating ORYSAT (ORYSAT (Rice, Tebonnet); rate 0.0625 kg/ha): 0.0 | Preemergence herbicidal rating ORYSAT (ORYSAT (Rice, Tebonnet); rate 0.1250 kg/ha): 0.0 | Preemergence herbicidal rating ORYSAT (ORYSAT (Rice, Tebonnet); rate 0.2500 kg/ha): 0.0 | Herbicidal rating SAGPY ([2]; 0.0313 kg/ha): 0.0 | Herbicidal rating SAGPY ([2]; 0.0625 kg/ha): 0.0 | Herbicidal rating SAGPY ([2]; 0.1250 kg/ha): 0.0 | Herbicidal rating SAGPY ([2]; 0.2500 kg/ha): 3.0 | Herbicidal rating ECHORC ([3]; 0.0313 kg/ha): 5.0 | Herbicidal rating ECHORC ([3]; 0.0625 kg/ha): 5.0 | Herbicidal rating ECHORC ([3]; 0.1250 kg/ha): 5.0 | Herbicidal rating ECHORC ([3]; 0.2500 kg/ha): 6.0 | Herbicidal rating SAGPY ([4]; rate 0.0313 kg/ha): 0.0 | Herbicidal rating SAGPY ([4]; rate 0.0625 kg/ha): 0.0 | Herbicidal rating SAGPY ([4]; rate 0.1250 kg/ha): 0.0 | Herbicidal rating SAGPY ([4]; rate 0.2500 kg/ha): 3.0 | Herbicidal rating ECHORC ([5]; rate 0.0313 kg/ha): 5.0 | Herbicidal rating ECHORC ([5]; rate 0.0625 kg/ha): 5.0 | Herbicidal rating ECHORC ([5]; rate 0.1250 kg/ha): 5.0 | Herbicidal rating ECHORC ([5]; rate 0.2500 kg/ha): 6.0 | Postemergence herbicidal rating GALAP (GALAP (Galium) [6]; Rate 0.0158 kg/ha): 1.0 | Postemergence herbicidal rating GALAP (GALAP (Galium) [6]; Rate 0.0315 kg/ha): 3.0 | Postemergence herbicidal rating GALAP (GALAP (Galium) [6]; Rate 0.0630 kg/ha): 3.0 | Postemergence herbicidal rating TRZAWR ([7]; Rate 0.0158 kg/ha): 3.5 | Postemergence herbicidal rating TRZAWR ([7]; Rate 0.0315 kg/ha): 3.5 | Postemergence herbicidal rating TRZAWR ([7]; Rate 0.0630 kg/ha): 3.5 | Postemergence herbicidal rating AMBEL (AMBEL (Ragweed, Common); Rate 0.0158 kg/ha): 9.0 | Postemergence herbicidal rating AMBEL (AMBEL (Ragweed, Common); Rate 0.0315 kg/ha): 9.0 | Postemergence herbicidal rating AMBEL (AMBEL (Ragweed, Common); Rate 0.0630 kg/ha): 9.0 | Preemergence herbicidal rating GALAP (GALAP (Galium) [8]; rate 0.0313 kg/ha): 0.0 | Preemergence herbicidal rating GALAP (GALAP (Galium) [8]; rate 0.0625 kg/ha): 0.0 | Preemergence herbicidal rating GALAP (GALAP (Galium) [8]; rate 0.1250 kg/ha): 0.0 | Preemergence herbicidal rating GALAP (GALAP (Galium) [8]; rate 0.2500 kg/ha): 0.0 | Preemergence herbicidal rating SETVI (SETVI (Foxtail, Green); rate 0.0313 kg/ha): 0.0 | Preemergence herbicidal rating SETVI (SETVI (Foxtail, Green); rate 0.0625 kg/ha): 1.0 | Preemergence herbicidal rating SETVI (SETVI (Foxtail, Green); rate 0.1250 kg/ha): 0.0 | Preemergence herbicidal rating SETVI (SETVI (Foxtail, Green); rate 0.2500 kg/ha): 0.0 | Herbicidal rating MOOVA (MOOVA (Monochoria); 0.0313 kg/ha): 7.0 | Herbicidal rating MOOVA (MOOVA (Monochoria); 0.0625 kg/ha): 9.0 | Herbicidal rating MOOVA (MOOVA (Monochoria); 0.1250 kg/ha): 9.0 | Herbicidal rating MOOVA (MOOVA (Monochoria); 0.2500 kg/ha): 9.0

— patent US20020137929A1, “1 - (3-heterocyclylphenyl) isothiourea, -isourea, -guanidine and -amidine herbicidal agents” (Intellectual Property Department, BASF Aktiengesellschaft, priority 1998, published 2002)
